Patent publication US5070210A, “Novel ketenimines as intermediates for insecticides” (ICI Americas Inc., priority 1990, dated 1991)

How the values were obtained:
Type in all cases: in vivo
[1] = system: Cabbage Looper [Trichoplusia ni (Hubner)]; assay: Cabbage looper insecticidal test; settings: second-instar larvae, percent in solution; 3-5 days
In short: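 Leaf dip, squash cotyledons, 50-50 acetone-water, top dose 0.1% and lower. 5 second-instar larvae/dish, moist filter paper, high-humidity chamber. Mortality at 3-5 d; LC50 (% in solution) from dosage-mortality curves.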

[2] = system: Aster Leafhopper [Macrosteles fascifrens (Stal)]; assay: Aster leafhopper insecticidal test; settings: adults/nymphs, percent in solution; 48 hours
Procedure: The compounds in Tables 1 and 2 above were tested for insecticidal activity using the following testing procedures. LC50 values, based on the results of these tests and calculated according to dosage-mortality curves, are expressed in Table 3.
Aster Leafhopper [Macrosteles fascifrens (Stal)]
Oat seedlings (Avena sp) were grown in a commercial potting soil in cups. When the plants were approximately 10 cm tall they were thinned to three plants per cup and dipped for 2-3 seconds in 50-50 acetone-water solutions of the test compounds. When the plants had dried, a clear plastic tube was placed over them and the bottom end pressed into the cup. Ten aster leafhopper adults/nymphs were then placed in each tube and the tops of the tubes covered with white organdy cloth. Mortality counts were made after 48 hours. Test concentrations ranged from 0.05% down to that at which 50% mortality occurred. The LC50 values are expressed below in Table 3 under the heading "LH" in terms of the percent of the test compound in the solution.

[3] = system: Maize weevil [Sitophilus Zeamais (Motschulsky)]; assay: Maize weevil insecticidal test; settings: adult weevils, percent in solution; 48 hours
In short: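 LC50, in percent of compound in solution, was derived from dosage-mortality curves after 48 h at about 25 °C. Ten adult weevils per container fed on four corn seeds briefly immersed in acetone:water (50:50) solutions of up to 0.01% and dried.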

[4] = system: Tobacco Budworm [Heliothis virescens (Fabricius)] eggs; assay: Tobacco budworm egg test; settings: 2-day old eggs, percent in solution
In short: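 LC50 values (percent test compound in the dip solution) were calculated from dosage-mortality curves. Egg patches, 2 days old, were dipped in acetone solutions at concentrations from 0.1% downward and held at 78° F on rearing medium until control larvae hatched and fed.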

[5] = system: Housefly [Musca domestica]; assay: Housefly insecticidal test; settings: μg per 25 female flies; mortality after 48 hours
In short: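 LC50, as μg compound per 25 female flies, comes from dosage-mortality curves with doses from 100 μg downward. Residues were made by evaporating acetone plus 0.01% peanut oil in dishes, onto which 1-2-day-old females were caged; deaths were counted after 48 hours.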

SMILES | LC50, CL [1] [%] | LC50, LH [2] [%] | LC50, MW [3] [%] | LC50, TBW, E (TBW-E) [4] [%] | LC50, HF [5] [µg]
C=C(C)C(=Nc1ccc(Cl)cc1)OCc1cccc(Oc2ccccc2)c1 [Compound 6] | 0.02 | > 0.05 | > 0.01 | 0.015 | 17
CCC(=Nc1ccc(Cl)cc1)OCc1cccc(Oc2ccccc2)c1 [Compound 11] | 0.025 | > 0.05 | > 0.01 | > 0.1 | 6
CC(C)C(=Nc1cc(Cl)ccc1Cl)OCc1cccc(Oc2ccccc2)c1 [Compound 13] | 0.014 | > 0.05 | > 0.01 | > 0.1 | > 100
CC(C)C(=Nc1ccccc1Cl)OCc1cccc(Oc2ccccc2)c1 [Compound 17] | 0.03 | > 0.05 | > 0.01 | > 0.1 | 75
N#CC(=Nc1ccc(Cl)cc1)OCc1cccc(Oc2ccccc2)c1 [Compound 21] | 0.02 | > 0.05 | > 0.01 | > 0.1 | 7
CC(C)(C)C(=Nc1ccc(Cl)c(Cl)c1)OCc1cccc(Oc2ccccc2)c1 [Compound 25] | 0.01 | > 0.05 | > 0.01 | > 0.1 | > 100
FC(F)(F)C(=Nc1ccc(Cl)cc1)OCc1cccc(Oc2ccccc2)c1 [Compound 35] | 0.008 | > 0.05 | > 0.01 | 0.03 | 15
CC(C)C(=Nc1ccccc1)OCc1cccc(Oc2ccccc2)c1 [Compound 43] | 0.018 | > 0.05 | > 0.01 | 0.05 | 7
Fc1ccc(N=C(OCc2cccc(Oc3ccccc3)c2)C(F)F)cc1 [Compound 50] | 0.02 | > 0.05 | > 0.01 | > 0.05 | 43
CC(C)C(=Nc1ccccc1C(F)(F)F)OCc1cccc(Oc2ccccc2)c1 [Compound 72] | 0.08 | > 0.05 | > 0.01 | > 0.1 | > 100
CCS(=O)(=O)c1ccc(N=C(OCc2cccc(Oc3ccccc3)c2)C(C)C)cc1Cl [Compound 112] | 0.025 | > 0.05 | > 0.01 | > 0.1 | > 100
Fc1ccc(N=C(OCc2cccc(Oc3ccccc3)c2)C(F)(F)C(F)(F)F)cc1Cl [Compound 117] | 0.006 | 0.0003 | > 0.01 | > 0.1 | 55
CC(C)C(=Nc1ccc(F)c(Cl)c1)OCc1cccc(Oc2ccccc2F)c1 [Compound 119] | 0.0007 | 0.0008 | > 0.01 | 0.048 | 27
CC1(C)C(C(=Nc2ccc(F)c(Cl)c2)OCc2cccc(Oc3ccccc3)c2)C1(C)C [Compound 124] | 0.01 | > 0.05 | > 0.01 | > 0.1 | 17
